# Source: patent publication US9981975B2, “Pyrrolotriazine compounds as tam inhibitors” (Incyte Corporation, priority 2016, dated 2018)
# Key:
# Assay type in all cases: biochemical
# [1] = target: c-Mer (Homo sapiens (Human), UniProt Q12866); assay: TAM Enzymatic Assay (HTRF), Mer; details: 60 min, room temperature
# Description: (§1) The kinase assay buffer contained 50 mM HEPES, pH7.5, 10 mM MgCl2, 1 mM EGTA, 0.01% NP-40 and 2 mM DTT. 0.1 ul test compounds dissolved in DMSO were transferred from compound plates to white 384-well assay plates (Greiner […] plates). […] 4 ul enzyme solution (or assay buffer for the enzyme blank) was added to the appropriate wells in each plate, and then 4 ul/well substrate solution was added to initiate the reaction. The plate was protected from light and incubated at room temperature for 60 min. […] The plate was incubated for 1 h at room temperature, and HTRF (homogenous time resolved fluorescence) signal was measured on a PHERAstar FS plate reader (BMG labtech). Percentage of inhibition was calculated for each concentration and IC50 value was generated from curve fitting with GraphPad Prism software.
# [2] = target: Tyro3 (Homo sapiens (Human), UniProt Q06418); assay: TAM Enzymatic Assay (HTRF), Tyro3; details: Tyro3, 60 min, room temperature
# Description: as §1
# [3] = target: phosphor-Axl (Homo sapiens (Human), UniProt P30530); assay: TAM Enzymatic Assay (HTRF), Axl; details: recombinant autophosphorylated Axl, 60 min, room temperature
# Description: Autophosphorylation of Axl was carried out by incubating the recombinant Axl protein (Life Technologies, PV4275) in buffer containing 50 mM Tris, pH7.5, 0.2 mg/ml Axl, 5 mM ATP, 20 mM MgCl2 and 2 mM DTT at room temperature for 1 hour.
# as §1
# Tyro3, sequence (Q06418 41-890): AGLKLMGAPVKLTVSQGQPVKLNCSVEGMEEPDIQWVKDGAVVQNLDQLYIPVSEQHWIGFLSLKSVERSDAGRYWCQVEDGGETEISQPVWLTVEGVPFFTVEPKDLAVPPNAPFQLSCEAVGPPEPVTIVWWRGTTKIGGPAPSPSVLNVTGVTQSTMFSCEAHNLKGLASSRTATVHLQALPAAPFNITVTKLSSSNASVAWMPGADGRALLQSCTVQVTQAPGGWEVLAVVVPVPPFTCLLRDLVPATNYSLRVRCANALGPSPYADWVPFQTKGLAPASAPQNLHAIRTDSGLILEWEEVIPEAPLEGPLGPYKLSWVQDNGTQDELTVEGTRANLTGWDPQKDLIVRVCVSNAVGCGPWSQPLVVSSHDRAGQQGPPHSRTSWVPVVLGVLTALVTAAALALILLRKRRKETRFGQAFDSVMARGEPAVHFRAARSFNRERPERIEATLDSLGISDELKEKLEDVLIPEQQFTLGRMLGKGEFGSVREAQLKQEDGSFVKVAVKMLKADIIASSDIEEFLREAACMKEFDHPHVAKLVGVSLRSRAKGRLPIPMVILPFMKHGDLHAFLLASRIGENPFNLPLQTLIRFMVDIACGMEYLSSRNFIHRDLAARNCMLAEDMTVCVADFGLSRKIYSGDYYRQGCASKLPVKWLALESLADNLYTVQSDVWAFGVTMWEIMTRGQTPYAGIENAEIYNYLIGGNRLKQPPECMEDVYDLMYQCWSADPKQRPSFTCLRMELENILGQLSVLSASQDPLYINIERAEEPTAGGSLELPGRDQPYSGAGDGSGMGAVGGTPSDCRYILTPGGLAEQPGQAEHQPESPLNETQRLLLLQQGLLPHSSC
# phosphor-Axl, sequence (P30530 26-894): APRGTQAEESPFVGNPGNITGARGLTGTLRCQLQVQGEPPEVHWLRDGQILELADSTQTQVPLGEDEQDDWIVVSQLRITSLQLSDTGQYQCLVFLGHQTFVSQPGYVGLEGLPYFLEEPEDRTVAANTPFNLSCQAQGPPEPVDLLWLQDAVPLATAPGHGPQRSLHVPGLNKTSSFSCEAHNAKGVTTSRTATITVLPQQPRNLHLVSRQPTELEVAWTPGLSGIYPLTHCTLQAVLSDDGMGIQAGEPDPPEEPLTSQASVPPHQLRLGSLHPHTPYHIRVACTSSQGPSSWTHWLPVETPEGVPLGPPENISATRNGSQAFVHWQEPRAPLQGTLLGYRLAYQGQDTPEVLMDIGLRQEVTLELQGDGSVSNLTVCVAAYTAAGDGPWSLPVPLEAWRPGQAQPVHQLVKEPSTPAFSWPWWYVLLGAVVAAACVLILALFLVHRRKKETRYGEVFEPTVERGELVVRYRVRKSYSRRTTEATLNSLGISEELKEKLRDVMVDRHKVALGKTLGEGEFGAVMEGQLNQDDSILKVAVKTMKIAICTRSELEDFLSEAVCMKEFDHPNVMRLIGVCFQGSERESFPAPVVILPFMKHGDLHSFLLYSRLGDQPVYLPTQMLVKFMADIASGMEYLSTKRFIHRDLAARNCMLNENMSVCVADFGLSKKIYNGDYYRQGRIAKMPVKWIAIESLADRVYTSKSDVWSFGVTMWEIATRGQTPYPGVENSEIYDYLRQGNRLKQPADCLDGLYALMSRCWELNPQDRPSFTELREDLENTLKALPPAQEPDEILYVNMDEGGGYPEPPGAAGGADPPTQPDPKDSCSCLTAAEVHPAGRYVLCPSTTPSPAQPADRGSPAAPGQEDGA
# c-Mer, sequence (Q12866 21-999): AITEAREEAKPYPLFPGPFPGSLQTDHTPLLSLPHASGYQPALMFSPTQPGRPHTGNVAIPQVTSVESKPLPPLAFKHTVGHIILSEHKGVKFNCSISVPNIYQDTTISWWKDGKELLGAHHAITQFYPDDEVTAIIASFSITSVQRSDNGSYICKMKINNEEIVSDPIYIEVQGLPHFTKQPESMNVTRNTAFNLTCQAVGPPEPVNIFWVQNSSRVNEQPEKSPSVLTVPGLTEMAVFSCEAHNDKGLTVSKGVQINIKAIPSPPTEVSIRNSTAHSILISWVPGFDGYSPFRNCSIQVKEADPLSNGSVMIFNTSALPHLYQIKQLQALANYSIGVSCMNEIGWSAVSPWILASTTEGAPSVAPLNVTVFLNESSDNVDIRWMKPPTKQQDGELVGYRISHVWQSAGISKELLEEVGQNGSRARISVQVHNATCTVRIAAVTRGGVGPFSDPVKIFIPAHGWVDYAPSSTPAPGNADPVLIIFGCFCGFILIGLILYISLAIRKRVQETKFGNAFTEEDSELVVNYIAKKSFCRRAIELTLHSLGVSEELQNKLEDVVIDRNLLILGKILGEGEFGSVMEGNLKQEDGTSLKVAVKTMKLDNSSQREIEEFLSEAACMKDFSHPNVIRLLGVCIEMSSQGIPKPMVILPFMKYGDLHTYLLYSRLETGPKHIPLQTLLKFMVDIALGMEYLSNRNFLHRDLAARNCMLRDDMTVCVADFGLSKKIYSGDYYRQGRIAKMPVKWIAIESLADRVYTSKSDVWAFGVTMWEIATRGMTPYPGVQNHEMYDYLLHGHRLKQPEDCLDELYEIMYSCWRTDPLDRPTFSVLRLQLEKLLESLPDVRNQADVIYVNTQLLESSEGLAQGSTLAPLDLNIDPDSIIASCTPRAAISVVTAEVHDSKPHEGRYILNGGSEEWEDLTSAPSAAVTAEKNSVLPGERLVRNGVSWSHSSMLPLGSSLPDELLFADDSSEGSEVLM
IC50 [1] [nM],IC50 [2] [nM],IC50 [3] [nM],Compound
≤ 5,–,–,"Nc1ncnn2c1c(-c1ccc(NC(=O)c3cccn(-c4ccccc4)c3=O)cc1)cc2[C@H]1CC[C@@H](O)CC1 [7 (cis isomer), N-{4-[4-Amino-7-(cis-4-hydroxycyclohexyl)pyrrolo[2,1-f][1,2,4]triazin-5-yl]phenyl}-2-oxo-1-phenyl-1,2-dihydropyridine-3-carboxamide]"
≤ 5,–,–,"Nc1ncnn2c1c(-c1ccc(NC(=O)c3cccn(-c4ccccc4)c3=O)cc1)cc2[C@H]1CC[C@H](O)CC1 [7 (trans isomer), N-{4-[4-Amino-7-(trans-4-hydroxycyclohexyl)pyrrolo[2,1-f][1,2,4]triazin-5-yl]phenyl}-2-oxo-1-phenyl-1,2-dihydropyridine-3-carboxamide]"
> 100,> 100,> 100,"CCc1cc(-c2ccc(NC(=O)c3cccn([C@H](C)CO)c3=O)cc2)c2c(N)ncnn12 [Example 3, N-[4-(4-Amino-7-ethylpyrrolo[2,1-f][1,2,4]triazin-5-yl)phenyl]-1-[(1R)-2-hydroxy-1-methylethyl]-2-oxo-1,2-dihydropyridine-3-carboxamide]"
> 100,> 100,> 100,"CCc1cc(-c2ccc(NC(=O)c3cccn([C@H](CC)CO)c3=O)cc2)c2c(N)ncnn12 [Example 4, N-[4-(4-Amino-7-ethylpyrrolo[2,1-f][1,2,4]triazin-5-yl)phenyl]-1-[(1R)-1-(hydroxymethyl)propyl]-2-oxo-1,2-dihydropyridine-3-carboxamide]"
≤ 5,> 100,–,"CCc1cc(-c2ccc(NC(=O)c3cccn(-c4ccccc4)c3=O)cc2F)c2c(N)ncnn12 [Example 12, N-[4-(4-Amino-7-ethylpyrrolo[2,1-f][1,2,4]triazin-5-yl)-3-fluorophenyl]-2-oxo-1-phenyl-1,2-dihydropyridine-3-carboxamide]"
≤ 5,–,≤ 5,"Nc1ncnn2c(C3CCOCC3)cc(-c3ccc(NC(=O)c4cccn(-c5ccccc5)c4=O)cc3F)c12 [Example 15, N-{4-[4-Amino-7-(tetrahydro-2H-pyran-4-yl)pyrrolo[2,1-f][1,2,4]triazin-5-yl]-3-fluorophenyl}-2-oxo-1-phenyl-1,2-dihydropyridine-3-carboxamide]"
≤ 5,–,≤ 5,"Nc1ncnn2c1c(-c1ccc(NC(=O)c3cccn(-c4ccc(F)cc4)c3=O)cc1)cc2[C@H]1CC[C@@H](O)CC1 [Example 17, N-{4-[4-Amino-7-(cis-4-hydroxycyclohexyl)pyrrolo[2,1-f][1,2,4]triazin-5-yl]phenyl}-1-(4-fluorophenyl)-2-oxo-1,2-dihydropyridine-3-carboxamide]"
≤ 5,–,≤ 5,"Nc1ncnn2c1c(-c1ccc(NC(=O)c3cccn(-c4ccccc4)c3=O)cc1F)cc2[C@H]1CC[C@@H](O)CC1 [Example 18, N-{4-[4-Amino-7-(cis-4-hydroxycyclohexyl)pyrrolo[2,1-f][1,2,4]triazin-5-yl]-3-fluorophenyl}-2-oxo-1-phenyl-1,2-dihydropyridine-3-carboxamide]"
≤ 5,–,–,"CN1CCC(c2cc(-c3ccc(NC(=O)c4cccn(-c5ccc(F)cc5)c4=O)cc3)c3c(N)ncnn23)CC1 [Example 21, N-{4-[4-Amino-7-(1-methylpiperidin-4-yl)pyrrolo[2,1-f][1,2,4]triazin-5-yl]phenyl}-1-(4-fluorophenyl)-2-oxo-1,2-dihydropyridine-3-carboxamide]"
≤ 5,–,–,"Nc1ncnn2c(C3CCN(CCO)CC3)cc(-c3ccc(NC(=O)c4cccn(-c5ccc(F)cc5)c4=O)cc3)c12 [Example 53, N-(4-{4-Amino-7-[1-(2-hydroxyethyl)piperidin-4-yl]pyrrolo[2,1-f][1,2,4]triazin-5-yl}phenyl)-1-(4-fluorophenyl)-2-oxo-1,2-dihydropyridine-3-carboxamide]"
≤ 5,–,≤ 5,"CC(C)C(=O)N1CCC(c2cc(-c3ccc(NC(=O)c4ccc(-c5ccccn5)n(-c5ccccc5)c4=O)cc3)c3c(N)ncnn23)CC1 [Example 104, N-(4-(4-Amino-7-(1-isobutyrylpiperidin-4-yl)pyrrolo[2,1-f][1,2,4]triazin-5-yl)phenyl)-6-oxo-1-phenyl-1,6-dihydro-[2,2′-bipyridine]-5-carboxamide]"
–,> 100,≤ 5,"CCOCc1c(C#N)cc(C(=O)Nc2ccc(-c3cc(C4CCN(C(=O)C(C)C)CC4)n4ncnc(N)c34)cc2)c(=O)n1-c1ccccc1 [Example 137, N-(4-(4-Amino-7-(1-isobutyrylpiperidin-4-yl)pyrrolo[2,1-f][1,2,4]triazin-5-yl)phenyl)-5-cyano-6-(ethoxymethyl)-2-oxo-1-phenyl-1,2-dihydropyridine-3-carboxamide]"
–,> 100,≤ 5,"CC(C)C(=O)N1CCC(c2cc(-c3ccc(NC(=O)c4cn(C5CC5)c(=O)n(-c5cccnc5)c4=O)cc3)c3c(N)ncnn23)CC1 [Example 140, N-(4-(4-Amino-7-(1-isobutyrylpiperidin-4-yl)pyrrolo[2,1-f][1,2,4]triazin-5-yl)phenyl)-1-cyclopropyl-2,4-dioxo-3-(pyridin-3-yl)-1,2,3,4-tetrahydropyrimidine-5-carboxamide]"
–,> 100,≤ 5,"Cc1ncccc1-c1c(C)n(C2CC2)cc(C(=O)Nc2ccc(-c3cc(C4CCN(C(=O)C(C)C)CC4)n4ncnc(N)c34)cc2)c1=O [Example 142, N-(4-(4-Amino-7-(1-isobutyrylpiperidin-4-yl)pyrrolo[2,1-f][1,2,4]triazin-5-yl)phenyl)-1-cyclopropyl-2,2′-dimethyl-4-oxo-1,4-dihydro-[3,3′-bipyridine]-5-carboxamide]"
–,> 100,≤ 5,"CC(C)C(=O)N1CCC(c2cc(-c3ccc(NC(=O)c4cn(C(C)C)c(=O)n(-c5ncccn5)c4=O)cc3)c3c(N)ncnn23)CC1 [Example 143, N-(4-(4-Amino-7-(1-isobutyrylpiperidin-4-yl)pyrrolo[1,2-f][1,2,4]triazin-5-yl)phenyl)-1-isopropyl-2,4-dioxo-3-(pyrimidin-2-yl)-1,2,3,4-tetrahydropyrimidine-5-carboxamide]"
–,> 100,≤ 5,"CC(C)C(=O)N1CCC(c2cc(-c3ccc(NC(=O)c4cn(C5CC5)c(=O)n(-c5ccccn5)c4=O)cc3)c3c(N)ncnn23)CC1 [Example 144, N-(4-(4-Amino-7-(1-isobutyrylpiperidin-4-yl)pyrrolo[1,2-f][1,2,4]triazin-5-yl)phenyl)-1-cyclopropyl-2,4-dioxo-3-(pyridin-2-yl)-1,2,3,4-tetrahydropyrimidine-5-carboxamide]"
–,> 100,≤ 5,"Cc1cc(-n2c(=O)c(C(=O)Nc3ccc(-c4cc(C5CCN(C(=O)C(C)C)CC5)n5ncnc(N)c45)cc3)cn(C(C)C)c2=O)nn1C [Example 148, N-(4-(4-Amino-7-(1-isobutyrylpiperidin-4-yl)pyrrolo[1,2-f][1,2,4]triazin-5-yl)phenyl)-3-(1,5-dimethyl-1H-pyrazol-3-yl)-1-isopropyl-2,4-dioxo-1,2,3,4-tetrahydropyrimidine-5-carboxamide]"
–,> 100,≤ 5,"Cc1cccc(-n2c(=O)c(C(=O)Nc3ccc(-c4cc(C5CCN(C(=O)C(C)C)CC5)n5ncnc(N)c45)cc3)cn(C(C)C)c2=O)n1 [Example 149, N-(4-(4-Amino-7-(1-isobutyrylpiperidin-4-yl)pyrrolo[1,2-f][1,2,4]triazin-5-yl)phenyl)-1-isopropyl-3-(6-methylpyridin-2-yl)-2,4-dioxo-1,2,3,4-tetrahydropyrimidine-5-carboxamide]"
